Measurements reported in patent publication US6545010B2, “Composition comprising camptothecin or a camptothecin derivative and a platin derivative for the treatment of cancer” (priority 2000, dated 2003).

What was measured:
P388 = test: Chemosensitivity of P388 leukemia, increase in life span; type: in vivo, mice; conditions: P388, agent i.v., highest non-toxic dose
Description: (§1) Cross-resistance was measured in murine leukemia cell lines.
(§2) ILS=100×[(median day of death (MDD) of treated mice)−(MDD control mice)]÷(MDD control mice)
(§3) Table III tabulates the results from this study.

P388/CPT = test: Chemosensitivity of camptothecin-resistant i.p. P388/CPT leukemia, increase in life span; type: in vivo, mice; conditions: for %ILS: P388/CPT, highest non-toxic dose
Description: as §1, §2, §3

[1] = tested on: Glasgow osteosarcoma (GOS); test: CPT-11 p.o. with oxaliplatin i.v., GOS sc; type: in vivo, mice; conditions: days 4-8
Description: (§4) The effectiveness of irinotecan combination chemotherapy methods were tested in a dose response study in a murine tumor model. Three arms were evaluated for tolerance and efficacy. Tolerance was measured by mortality, body weight loss at nadir, host recovery time, and combination toxicity index. Efficacy end points for solid tumor models were tumor growth delay (T/C), log10 cell kill (LCK, defined above), tumor regressions (i.e., complete remission (CR), or partial remission (PR)). For non-solid tumors, such as leukemia, efficacy was measured as the increase in life span (ILS).

[2] = tested on: Glasgow osteosarcoma (GOS); test: CPT-11 i.v. with oxaliplatin i.v., GOS sc; type: in vivo, mice
Description: as §4

Colon Adenocarcinoma C51 = test: CPT-11, cisplatin and combination, three-arm study in mice bearing colon adenocarcinoma C51; conditions: for LCK / HNTD Dose: C51 sc; for T/C: tumor growth delay
Description: This efficacy may be quantified, for example, by the log10 cell kill, which is determined by the following formula: […]
An agent is considered to be active if log10 cell kill is greater than or equal to 0.7. An agent is considered to be very active if the log10 cell kill is greater than 2.8.
In the first arm, four dose levels of CPT-11 were given orally on days four through seven, twice daily. […] This third arm illustrated an example of semi-simultaneous administration.
The LD10 for the single agent was obtained by plotting the toxicity of that agent and the dosage in mg/kg as a log probit graph. Subsequently, the CTI LD10 was obtained by plotting as a log probit graph the observed lethality and the corresponding CTI calculated as the sum of the fraction of the LD10 of each single agent.

[3] = Tolerance and maximum tolerated dose of oral vs i.v. irinotecan in tumor bearing mice; type: in vivo; conditions: all five tumor models, three mice strains
Description: as §4

[4] = Cisplatin i.v. 1.9 mg/kg/adm, days 4, 7
[5] = Cisplatin i.v. 3.1 mg/kg/adm, days 4, 7
[6] = CPT-11 p.o. 31.5 mg/kg/adm, days 4-7 twice/day
[7] = CPT-11 p.o. 50.8 mg/kg/adm, days 4-7 twice/day

## O=C1[O][Pt]2([NH][C@@H]3CCCC[C@H]3[NH]2)[O]C1=O [Oxaliplatin, oxaliplatin]
P388
  %ILS: 0%
P388/CPT; agent i.v.
  %ILS: 86%
  Comment (sensitivity of P388/CPT): sensitive
[1]; oxaliplatin i.v. alone at HNTD
  LCK: 2.0
[1]; oxaliplatin i.v. alone
  HNTD Dose: 16.0 mg/kg
[2]; oxaliplatin i.v. alone at HNTD, days 3, 5, 7
  LCK: 2.3
[2]; oxaliplatin i.v. alone, days 3, 5, 7
  HNTD Dose: 10.2 mg/kg

## N.N.[Cl][Pt][Cl] [Cisplatin, cis-diaminedichloroplatinum]
P388
  %ILS: 73%
Colon Adenocarcinoma C51; cisplatin i.v. alone at HNTD, days 4, 7
  LCK: 3.3
Colon Adenocarcinoma C51; cisplatin i.v. alone, days 4, 7
  HNTD Dose: 6.2 mg/kg
Colon Adenocarcinoma C51; [4]
  Log10 cell kill: 1.3
  Time for Median tumor to reach 1000 mg: 30.8 days
  T/C: 11.3 days
Colon Adenocarcinoma C51; [5]
  Log10 cell kill: 3.3
  Time for Median tumor to reach 1000 mg: 48.1 days
  T/C: 28.6 days
P388/CPT; agent i.v.
  %ILS: 153%
  Comment (sensitivity of P388/CPT): sensitive

## CCc1c2c(nc3ccc(OC(=O)N4CCC(N5CCCCC5)CC4)cc13)-c1cc3c(c(=O)n1C2)COC(=O)[C@]3(O)CC [CPT-11, irinotecan]
Colon Adenocarcinoma C51; CPT-11 p.o. alone at HNTD, days 4-7, twice daily
  LCK: 1.1
Colon Adenocarcinoma C51; CPT-11 p.o. alone, days 4-7, twice daily
  HNTD Dose: 406 mg/kg
Colon Adenocarcinoma C51; [6]
  Comments: Marginal Activity
  Log10 cell kill: 0.7
  Time for Median tumor to reach 1000 mg: 25.5 days
  T/C: 6.0 days
Colon Adenocarcinoma C51; [7]
  Time for Median tumor to reach 1000 mg: 29.4 days
  T/C: 9.9 days
P388/CPT; agent i.v.
  Comment (sensitivity of P388/CPT): resistant
[3]
  efficacy in tumor bearing mice, oral vs i.v. administration: similar
[2]; CPT-11 i.v. alone, days 3, 5, 7 twice daily
  HNTD Dose: 349.8 mg/kg

## CC[C@@]1(O)C(=O)OCc2c1cc1n(c2=O)Cc2cc3ccccc3nc2-1 [CPT, camptothecin]
P388/CPT; agent s.c.
  Comment (sensitivity of P388/CPT): resistant
